From PubChem BioAssay (NCI)
Several values for one entry are separate records, joined by “and”; a condition that tells them apart may be missing. Equal values may be shown once.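 Test compounds were applied to cells in 96-well plates for 48 hours at 5 doses. Here, GI50 denotes the concentration required for 50% inhibition of growth. TGI is the concentration that stops growth completely.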

Legend:
Test in all cases: growth of human tumour cells (NCI), 48 h
[1] = tested on: BT-549 breast
[2] = tested on: T-47D breast
[3] = tested on: XF 498 CNS
[4] = tested on: DLD-1 colon
[5] = tested on: KM20L2 colon
[6] = tested on: DMS 114 small cell lung
[7] = tested on: MDA-N
[8] = tested on: RXF-631 renal
[9] = tested on: DMS 273 small cell lung

| SMILES | TGI [1] | GI50 [1] | GI50 [2] | TGI [2] | TGI [4] | TGI [5] | also measured |
| --- | --- | --- | --- | --- | --- | --- | --- |
| COc1cc(Nc2nc3ccccc3nc2NS(=O)(=O)c2ccc(NC(=O)c3ccc(C)c(OC)c3)cc2)cc(OC)c1 | 20.9 µM and 49.2 µM and > 6.49 µM | – | – | – | – | – | – |
| O=C1NC(=O)C(c2ccccc2Cl)=C1Nc1cc(Cl)c(O)c(Cl)c1 | > 25 µM | 16700 nM | > 15200 nM | > 25 µM | – | – | – |
| O=C(O)Cc1cc(=O)[nH]c2c1/C(=N/O)CCC2 | – | – | – | – | > 100 µM | – | TGI [3]: > 100 µM |
| O=C(Nc1ccc(Cl)cc1Cl)C1C(=O)C(=O)N(c2ccc(Cl)cc2Cl)C1=O (centres undefined) | – | – | – | – | > 100 µM | > 100 µM | TGI [6]: > 100 µM |
| O=c1ccs[nH]1 | 40.3 µM | – | – | 55.5 µM | – | – | TGI [7]: 60.2 µM |
| COc1ccc(NC(=O)CC/C(CC(=O)C(C)(C)C)=N\NC(=O)C(=O)NN)cc1 | – | – | – | – | > 100 µM | > 100 µM | TGI [8]: > 100 µM; TGI [9]: > 100 µM; TGI [6]: > 100 µM |
| C#CC1(OC(C)=O)CCC2C3CC=C4C=C(OC(C)=O)CCC4(C)C3CCC21C (centres undefined) | 83.1 µM | – | – | > 100 µM | – | – | – |
| C=C(C#N)C1OCC2OC(C)(C)OC21 (centres undefined) | – | – | – | – | 34.4 µM | – | TGI [8]: 35.8 µM; TGI [9]: 43.1 µM; TGI [6]: 57.2 µM |
| COc1cccc(/C=C/[N+](=O)[O-])c1 | 3.99 µM | 1860 nM | 2510 nM | 9.6 µM | – | – | – |
| COc1ccc(/C(COc2ccc3c(=O)c(-c4ccccc4)coc3c2)=N\O)cc1 | 54.7 µM | 8270 nM | 6960 nM | > 37.2 µM | – | – | – |
| O=C(O)NC(c1ccccc1)C(NC(=O)c1ccccc1)c1ccccc1 (centres undefined) | – | – | – | – | > 100 µM | > 100 µM | TGI [3]: > 100 µM; TGI [6]: > 100 µM |
| CC1=C(C(=O)Nc2ccc(Cl)c(Cl)c2)C(c2cccc(Cl)c2)NC(=O)N1 (centres undefined) | 13.4 µM | 6420 nM | 19200 nM | > 50 µM | – | – | – |
| Cc1ccc2c(-c3ccnc(Nc4ccccc4)n3)c(-c3ccc(F)cc3)nn2n1 | > 25 µM | 10700 nM | 7450 nM | > 25 µM | – | – | – |
| Cc1ccc(Cc2cnc(NC(=O)/C=C/c3cccc(C)c3)s2)cc1 | > 27.4 µM | 256 nM | 577 nM | > 100 µM | – | – | – |
| CC(=C/C=C/C=C(C)\C=C\C=C(\C)C(=O)O)/C=C/C=C(/C)C(=O)O | > 100 µM | – | – | > 100 µM | – | – | TGI [7]: > 100 µM |
| CC(=O)[CH-]C(=O)c1ccccc1.CC(=O)[CH-]C(=O)c1ccccc1.CC(C)CCCC(C)[C@H]1CCC2[C@@H]3CC=C4C[C@@H]([O-])CC[C@]4(C)C3CC[C@@]21C.CC(C)CCCC(C)[C@H]1CCC2[C@@H]3CC=C4C[C@@H]([O-])CC[C@]4(C)C3CC[C@@]21C.[Ti+4] (some centres undefined) | – | – | – | – | > 100 µM | > 100 µM | GI50 [5]: > 100 µM; GI50 [9]: > 100 µM; TGI [9]: > 100 µM; GI50 [4]: > 100 µM |

| SMILES | TGI [1] | GI50 [1] | GI50 [2] | TGI [2] | TGI [4] | TGI [5] | also measured |
| --- | --- | --- | --- | --- | --- | --- | --- |
| CC(C)(C)CC(C)(C)c1cc2c(O)c(c1)Cc1cc(C(C)(C)CC(C)(C)C)cc(c1O)Cc1cc(C(C)(C)CC(C)(C)C)cc(c1O)Cc1cc(C(C)(C)CC(C)(C)C)cc(c1O)Cc1cc(C(C)(C)CC(C)(C)C)cc(c1O)C2 | – | – | – | – | > 100 µM | > 100 µM | TGI [3]: > 100 µM; TGI [9]: > 100 µM; TGI [6]: > 100 µM |
| COc1cc2ncn(-c3cc(O[C@@H](C)c4ccccc4Cl)c(C(N)=O)s3)c2cc1OC | > 24.1 µM | 2940 nM | 1800 nM | 7.09 µM | – | – | – |
| O=C1c2ccccc2-c2oc(=O)c3ccccc3c21 | – | – | – | > 100 µM | – | – | TGI [7]: > 100 µM |
| C=C(CN1CCN(c2cccc(C(F)(F)F)n2)CC1)c1ccc(C(=O)Nc2ccccc2N)cc1 | 88.4 µM and > 100 µM | 918 nM and 340 nM | 3010 nM and 616 nM | > 100 µM | – | – | – |
| COc1cc2c(cc1OC)-c1ccc3cc4c(cc3c1N(CCCn1ccnc1)C2)OCO4 | 17.9 µM | 3780 nM | 358 nM | 4.27 µM | – | – | – |
| O=C(O)CCCSc1ccccc1 | > 100 µM | – | – | > 100 µM | – | – | TGI [7]: > 100 µM |
| CN(C)CCNC(=O)c1cccc2nc3cc(Cl)ccc3nc12 | – | – | – | – | 20.3 µM | 9.08 µM | TGI [9]: > 100 µM; TGI [6]: 6.69 µM |
| C/C(=N\Nc1cc(C)c2ccccc2n1)c1ccccn1 | 15.7 µM | 301 nM | < 20.8 nM | 2.78 µM | – | – | – |
| CC(=O)OC1CCn2nnc(CO)c21 (centres undefined) | – | – | – | – | > 100 µM | > 100 µM | TGI [3]: > 100 µM; TGI [9]: > 100 µM; TGI [6]: > 100 µM |
| C=C1C(=O)O[C@H]2[C@H]1CC/C(COC(=O)C(=O)c1cn(C)c3ccc(Cl)cc13)=C\CC[C@@]1(C)O[C@@H]21 | 0.618 µM | 234 nM | 1460 nM | 3.27 µM | – | – | – |
| CS(=O)(=O)CCNCc1ccc(-c2ccc3ncnc(Nc4ccc(OCc5ccccc5)c(Br)c4)c3c2)o1 | > 25 µM | 8890 nM | 821 nM | 17.4 µM | – | – | – |
| CC1=C(C(=O)Nc2cc(=O)n(C)c(=O)n2C)C(c2cccc([N+](=O)[O-])c2)C(C(=O)Nc2cc(=O)n(C)c(=O)n2C)=C(C)N1 | – | – | – | – | > 100 µM | > 100 µM | TGI [6]: > 100 µM |
| COc1ccc(-c2cc(-c3ccc(Cl)cc3)nc(SCCCC(=O)NO)n2)cc1 | 28.6 µM | 2460 nM | 801 nM | 7.46 µM | – | – | – |
| COc1cc(OC)c(SSCCCCS(=O)O)c(OC)c1 | – | – | – | – | 41.1 µM | 37.9 µM | TGI [3]: 27.6 µM; TGI [9]: 34.8 µM; TGI [6]: 39 µM |
| C=C(C)[C@@H]1CC[C@]2(C(=O)O)CC[C@]3(C)[C@H](CC[C@@H]4[C@@]5(C)CCC(NC(=O)c6cccc(OC(C)=O)c6OC(C)=O)C(C)(C)[C@@H]5CC[C@]43C)[C@@H]12 (some centres undefined) | 3.67 µM | 1180 nM | 628 nM | > 100 µM | – | – | – |
| CC(C)[O-].CC(C)[O-].O=C1C=C([O-])C(=O)c2ccccc21.O=C1C=C([O-])C(=O)c2ccccc21.[Ti+4] | – | – | – | – | > 100 µM | > 100 µM | GI50 [3]: > 100 µM; TGI [3]: > 100 µM; GI50 [5]: 44.1 µM; GI50 [9]: 34.9 µM; TGI [9]: > 100 µM; GI50 [4]: > 100 µM |
